Assay results as given in patent publication US9079922B2, “2-oxo-oxazolidin-3,5-diyl antibiotic derivatives” (priority 2011, dated 2015).
Converted amounts (≈) assume the structure as drawn.

Tests used:
[1] = system: Acinetobacter baumanii T6474; assay: Bacterial growth minimal inhibitory concentration (microdilution, cation-adjusted Mueller-Hinton Broth); type: cell-based; settings: Acinetobacter baumannii, multiply-resistant strain, in particular quinolone resistant
Description: (§1) Bacterial Growth Minimal Inhibitory Concentrations:
(§2) Minimal inhibitory concentrations (MICs; mg/l) were determined in cation-adjusted Mueller-Hinton Broth by a microdilution method following the description given in “Methods for Dilution Antimicrobial Susceptibility Tests for Bacteria that Grow Aerobically”, Approved standard, 7th ed., Clinical and Laboratory Standards Institute (CLSI) Document M7-A7, Wayne, Pa., USA, 2006.
(§3) All Example compounds were tested against several Gram positive and Gram negative bacteria. Staphylococcus aureus A798 and Acinetobacter baumanii T6474 are multiply-resistant strains, in particular quinolone resistant.

[2] = system: Staphylococcus aureus A798; assay: as above; type: cell-based; settings: multiply-resistant strain, in particular quinolone resistant, read-out: MIC for S. aureus A798
Description: as §1, §2, §3

Row | Compound | MIC [1] | MIC [2]
1 | O=C1COc2ccc(N3C[C@H](CNC[C@@H]4CCN(c5nc6c(cc5F)c(=O)c(C(=O)O)cn6C5CC5)C4)OC3=O)nc2N1 [Example 22, 1-cyclopropyl-6-fluoro-4-oxo-7-[(S)-3-({[(S)-2-oxo-3-(3-oxo-3,4-dihydro-2H-pyrido[3,2-b][1,4]oxazin-6-yl)-oxazolidin-5-ylmethyl]-amino}-methyl)-pyrrolidin-1-yl]-1,4-dihydro-[1,8]naphthyridine-3-carboxylic acid] | 0.031 µg/mL (≈ 0.0522 µM) | 0.125 µg/mL (≈ 0.211 µM)
2 | O=C1COc2ccc(N3C[C@H](CNC4CN(c5nc6c(cc5F)c(=O)c5c(O)nsc5n6C5CC5)C4)OC3=O)nc2N1 [Example 24, 9-cyclopropyl-6-fluoro-3-hydroxy-7-(3-{[(S)-2-oxo-3-(3-oxo-3,4-dihydro-2H-pyrido[3,2-b][1,4]oxazin-6-yl)-oxazolidin-5-ylmethyl]-amino}-azetidin-1-yl)-9H-1-thia-2,8,9-triaza-cyclopenta[b]naphthalen-4-one] | 0.063 µg/mL (≈ 0.106 µM) | ≤ 0.016 µg/mL
3 | O=C1COc2ccc(N3C[C@H](CN4CCN(c5nc6c(cc5F)c(=O)c5c(O)nsc5n6C5CC5)CC4)OC3=O)nc2N1 [Example 25, 9-cyclopropyl-6-fluoro-3-hydroxy-7-{4-[(S)-2-oxo-3-(3-oxo-3,4-dihydro-2H-pyrido[3,2-b][1,4]oxazin-6-yl)-oxazolidin-5-ylmethyl]-piperazin-1-yl}-9H-1-thia-2,8,9-triaza-cyclopenta[b]naphthalen-4-one] | 0.125 µg/mL (≈ 0.205 µM) | ≤ 0.016 µg/mL

Now those with a lower MIC [1], led by results:

Row | MIC [1] | MIC [2] | Compound
4 | ≤ 0.016 µg/mL | ≤ 0.016 µg/mL | O=C1COc2ccc(N3C[C@H](CNC4CCN(c5nc6c(cc5F)c(=O)c(C(=O)O)cn6C5CC5)CC4)OC3=O)nc2N1 [Example 20, 1-cyclopropyl-6-fluoro-4-oxo-7-(4-{[(S)-2-oxo-3-(3-oxo-3,4-dihydro-2H-pyrido[3,2-b][1,4]oxazin-6-yl)-oxazolidin-5-ylmethyl]-amino}-piperidin-1-yl)-1,4-dihydro-[1,8]naphthyridine-3-carboxylic acid]
5 | ≤ 0.016 µg/mL | ≤ 0.016 µg/mL | O=C1COc2ccc(N3C[C@H](CNC4CCN(c5nc6c(cc5F)c(=O)c5c(O)nsc5n6C5CC5)CC4)OC3=O)nc2N1 [Example 23, 9-cyclopropyl-6-fluoro-3-hydroxy-7-(4-{[(S)-2-oxo-3-(3-oxo-3,4-dihydro-2H-pyrido[3,2-b][1,4]oxazin-6-yl)-oxazolidin-5-ylmethyl]-amino}-piperidin-1-yl)-9H-1-thia-2,8,9-triaza-cyclopenta[b]naphthalen-4-one]
